pIC50: −log10 of the molar value.
target: T1, recombinant human sEH (Homo sapiens, UniProt P34913); assay: In vitro evaluation test for sEH inhibitory activity; type: biochemical; conditions: recombinant human sEH 0.026 μg/mL, fluorescent substrate 6.25 μmol/L, room temperature
T1 construct: purchased Cayman
T1 sequence (P34913 1-555): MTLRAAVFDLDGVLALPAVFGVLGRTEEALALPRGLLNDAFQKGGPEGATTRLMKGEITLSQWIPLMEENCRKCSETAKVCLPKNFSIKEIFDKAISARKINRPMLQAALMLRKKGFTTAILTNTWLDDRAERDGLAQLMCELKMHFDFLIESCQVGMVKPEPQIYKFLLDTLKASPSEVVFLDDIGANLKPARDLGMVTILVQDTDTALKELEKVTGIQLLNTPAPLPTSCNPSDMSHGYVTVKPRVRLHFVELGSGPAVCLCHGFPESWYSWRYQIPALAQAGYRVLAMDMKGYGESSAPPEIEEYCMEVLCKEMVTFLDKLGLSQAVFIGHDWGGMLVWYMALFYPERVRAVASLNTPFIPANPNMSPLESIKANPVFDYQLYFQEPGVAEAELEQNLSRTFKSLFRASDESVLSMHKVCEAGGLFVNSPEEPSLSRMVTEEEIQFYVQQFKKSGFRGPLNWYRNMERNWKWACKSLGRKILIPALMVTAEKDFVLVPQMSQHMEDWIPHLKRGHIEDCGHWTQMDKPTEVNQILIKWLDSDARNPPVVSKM
Method: According to the method described in a known document (Analytical Biochemistry, 2005, vol. 343, p. 66-75), the sEH inhibitory activity of each nipecotic acid derivative (I) or a pharmaceutically acceptable salt thereof was evaluated using human sEH.
A recombinant human sEH (final concentration, 0.026 μg/mL; Cayman) was incubated with each test compound in 25 mM Bis-Tris-HCl buffer (pH 7.0) supplemented with 0.1 mg/mL BSA at room temperature for 30 minutes. Thereafter, cyano(6-methoxynaphthalen-2-yl)methyl 2-(3-phenyloxiran-2-yl)acetate (final concentration, 6.25 μmol/L; Cayman) was added thereto as a fluorescent substrate, and the resulting mixture was incubated at room temperature for 20 minutes. The reaction was then stopped by addition of ZnSO4 (final concentration, 0.2 mol/L), and the fluorescence intensity was measured (Fusion α (Packard); Excitation: 330 nm, Emission:485 nm).
The fluorescence intensity observed with addition of neither sEH nor a test compound was regarded as the sEH enzymatic reaction rate of 0%, and the fluorescence intensity observed with addition of sEH but without addition of a test compound was regarded as the sEH enzymatic reaction rate of 100%. From the obtained fluorescence intensity, the sEH enzymatic reaction rate of each test compound was calculated to determine IC50.

| pIC50 | SMILES |
| --- | --- |
| 8.77 | N#Cc1ccc(CNC(=O)[C@@H]2CCCN(C(=O)C3(NC(=O)C4CC4)CCC3)C2)c(OC(F)(F)F)c1 [Example Compound 29, (R)—N-(4-cyano-2-(trifluoromethoxy)benzyl)-1-(1-(cyclopropanecarboxamide)cyclobutanecarbonyl)piperidine-3-carboxamide] |
| 8.82 | CC(C)(NS(C)(=O)=O)C(=O)N1CCC[C@@H](C(=O)NCc2ccc(C(N)=O)cc2OC(F)(F)F)C1 [Example Compound 14, (R)—N-(4-carbamoyl-2-(trifluoromethoxy)benzyl)-1-(2-methyl-2-(methylsulfonamido)propanoyl)piperidine-3-carboxamide] |
| 9.30 | CC(=O)N[C@@H](C(=O)N1CCC[C@@H](C(=O)NCc2ccc(C#N)cc2OC(F)(F)F)C1)C(C)C [Example Compound 11, (R)-1-((R)-2-acetamido-3-methylbutanoyl)-N-(4-cyano-2-(trifluoromethoxy)benzyl)piperidine-3-carboxamide] |
| 8.66 | CC(C)(C)C(=O)NC1(C(=O)N2CCC[C@@H](C(=O)NCc3ccc(C#N)cc3OC(F)(F)F)C2)CC1 [Example Compound 27, (R)—N-(4-cyano-2-(trifluoromethoxy)benzyl)-1-(1-pivalamidocyclopropanecarbonyl)piperidine-3-carboxamide] |
| 9.30 | CC(C)[C@@H](O)C(=O)N1CCC[C@@H](C(=O)NCc2ccc(C#N)cc2OC(F)(F)F)C1 [Example Compound 44, (R)—N-(4-cyano-2-(trifluoromethoxy)benzyl)-1-((R)-2-hydroxy-3-methylbutanoyl)piperidine-3-carboxamide] |
| 8.82 | CC(C)(C(=O)N1CCC[C@@H](C(=O)NCc2ccc(C#N)cc2OC(F)(F)F)C1)n1cncn1 [Example Compound 36, (R)—N-(4-cyano-2-(trifluoromethoxy)benzyl)-1-(2-methyl-2-(1H-1,2,4-triazol-1-yl)propanoyl)piperidine-3-carboxamide] |
| 8.74 | N#Cc1ccc(CNC(=O)[C@@H]2CCCN(C(=O)C3(C#N)CC3)C2)c(OC(F)(F)F)c1 [Example Compound 23, (R)—N-(4-cyano-2-(trifluoromethoxy)benzyl)-1-(1-cyanocyclopropanecarbonyl)piperidine-3-carboxamide] |
| 8.96 | CC(C)(O)[C@@H](NS(C)(=O)=O)C(=O)N1CCC[C@@H](C(=O)NCc2ccc(Cl)cc2Cl)C1 [Example Compound 41, (R)—N-(2,4-dichlorobenzyl)-1-((R)-3-hydroxy-3-methyl-2-(methylsulfonamido)butanoyl)piperidine-3-carboxamide] |
| 9.15 | N#Cc1ccc(CNC(=O)[C@@H]2CCCN(C(=O)C3(O)CCCCC3)C2)c(OC(F)(F)F)c1 [Example Compound 20, (R)—N-(4-cyano-2-(trifluoromethoxy)benzyl)-1-(1-hydroxycyclohexanecarbonyl)piperidine-3-carboxamide] |
| 8.92 | CC[C@@H](O)C(=O)N1CCC[C@@H](C(=O)NCc2ccc(C#N)cc2OC(F)(F)F)C1 [Example Compound 43, (R)—N-(4-cyano-2-(trifluoromethoxy)benzyl)-1-((R)-2-hydroxybutanoyl)piperidine-3-carboxamide] |
| 8.46 | CS(=O)(=O)NC1(C(=O)N2CCC[C@@H](C(=O)NCc3ccc(C#N)cc3OC(F)(F)F)C2)CC1 [Example Compound 3, (R)—N-(4-cyano-2-(trifluoromethoxy)benzyl)-1-(1-(methylsulfonamido)cyclopropanecarbonyl)piperidine-3-carboxamide] |
| 8.72 | CS(=O)(=O)NC1(C(=O)N2CCC[C@@H](C(=O)NCc3ccc(C(N)=O)cc3OC(F)(F)F)C2)CC1 [Example Compound 15] |
| 8.64 | CS(=O)(=O)NC1(C(=O)N2CCC[C@@H](C(=O)NCc3ccc(C#N)cc3OC(F)(F)F)C2)CCOCC1 [Example Compound 28, (R)—N-(4-cyano-2-(trifluoromethoxy)benzyl)-1-(4-(methylsulfonamido)tetrahydro-2H-pyran-4-carbonyl)piperidine-3-carboxamide] |
| 8.89 | CCC(=O)N[C@@H](C(=O)N1CCC[C@@H](C(=O)NCc2ccc(C#N)cc2OC(F)(F)F)C1)C(C)(C)O [Example Compound 31, (R)—N-(4-cyano-2-(trifluoromethoxy)benzyl)-1-((R)-3-hydroxy-3-methyl-2-propionamidobutanoyl)piperidine-3-carboxamide] |
| 8.46 | C[C@@H](O)C(=O)N1CCC[C@@H](C(=O)NCc2ccc(C#N)cc2OC(F)(F)F)C1 [Example Compound 42, (R)—N-(4-cyano-2-(trifluoromethoxy)benzyl)-1-((R)-2-hydroxypropanoyl)piperidine-3-carboxamide] |
| 8.85 | CCS(=O)(=O)NC1(C(=O)N2CCC[C@@H](C(=O)NCc3ccc(C#N)cc3OC(F)(F)F)C2)CC1 [Example Compound 13, (R)—N-(4-cyano-2-(trifluoromethoxy)benzyl)-1-(1-(ethylsulfonamido)cyclopropanecarbonyl)piperidine-3-carboxamide] |
| 9.10 | CC(C)(C)C(=O)NC1(C(=O)N2CCC[C@@H](C(=O)NCc3ccc(C#N)cc3OC(F)(F)F)C2)CCC1 [Example Compound 7, (R)—N-(4-cyano-2-(trifluoromethoxy)benzyl)-1-(1-pivalamidocyclobutanecarbonyl)piperidine-3-carboxamide] |
| < 7.70 | O=C(Nc1ccc(C(F)(F)F)cn1)[C@@H]1CCCN(C(=O)C2(O)CCCCC2)C1 [Comparative Example Compound 1, (R)-1-(1-hydroxycyclohexanecarbonyl)-N-(5-(trifluoromethyl)pyridin-2-yl)piperidine-3-carboxamide, reference compound] |
| 8.62 | CC(C)(O)C(=O)N1CCC[C@@H](C(=O)NCc2ccc(C#N)cc2OC(F)(F)F)C1 [Example Compound 16, (R)—N-(4-cyano-2-(trifluoromethoxy)benzyl)-1-(2-hydroxy-2-methylpropanoyl)piperidine-3-carboxamide] |
| 9.10 | N#Cc1ccc(CNC(=O)[C@@H]2CCCN(C(=O)C3(NC(=O)CC4CC4)CCC3)C2)c(OC(F)(F)F)c1 [Example Compound 34, (R)—N-(4-cyano-2-(trifluoromethoxy)benzyl)-1-(1-(2-cyclopropylacetamido)cyclobutanecarbonyl)piperidine-3-carboxamide] |
| 9.15 | CCC(=O)N[C@@H](C(=O)N1CCC[C@@H](C(=O)NCc2ccc(Cl)cc2Cl)C1)C(C)(C)O [Example Compound 40, (R)—N-(2,4-dichlorobenzyl)-1-((R)-3-hydroxy-3-methyl-2-propionamidobutanoyl)piperidine-3-carboxamide] |
| 9.30 | CC[C@@H](NS(C)(=O)=O)C(=O)N1CCC[C@@H](C(=O)NCc2ccc(C#N)cc2OC(F)(F)F)C1 [Example Compound 22, (R)—N-(4-cyano-2-(trifluoromethoxy)benzyl)-1-((R)-2-(methylsulfonamido)butanoyl)piperidine-3-carboxamide] |
| 8.96 | CC(C)(C)C(=O)N1CCC[C@@H](C(=O)NCc2ccc(C#N)cc2OC(F)(F)F)C1 [Example Compound 17, (R)—N-(4-cyano-2-(trifluoromethoxy)benzyl)-1-pivaloylpiperidine-3-carboxamide] |
| 8.62 | CCCC(=O)NC1(C(=O)N2CCC[C@@H](C(=O)NCc3ccc(C#N)cc3OC(F)(F)F)C2)CCC1 [Example Compound 33, (R)-1-(1-butylamidocyclobutanecarbonyl)-N-(4-cyano-2-(trifluoromethoxy)benzyl)piperidine-3-carboxamide] |
| 9.00 | CS(=O)(=O)NC1(C(=O)N2CCC[C@@H](C(=O)NCc3ccc(C#N)cc3OC(F)(F)F)C2)CCC1 [Example Compound 5, (R)—N-(4-cyano-2-(trifluoromethoxy)benzyl)-1-(1-(methylsulfonamido)cyclobutanecarbonyl)piperidine-3-carboxamide] |
| < 7.52 | CC(=O)NCC(=O)N1CCC[C@@H](C(=O)NCc2ccc(C#N)cc2OC(F)(F)F)C1 [Comparative Example Compound 2, (R)-1-(2-acetamidoacetyl)-N-(4-cyano-2-(trifluoromethoxy)benzyl)piperidine-3-carboxamide, reference compound] |
| 9.00 | CC(C)C(=O)NC1(C(=O)N2CCC[C@@H](C(=O)NCc3ccc(C#N)cc3OC(F)(F)F)C2)CCC1 [Example Compound 6, (R)—N-(4-cyano-2-(trifluoromethoxy)benzyl)-1-(1-isobutylamidocyclobutanecarbonyl)piperidine-3-carboxamide] |
